The record followed here is patent publication US6762178B2, “Acetylenic aryl sulfonamide and phosphinic acid amide hydroxamic acid TACE inhibitors” (Wyeth Holdings Corporation, priority 1999, dated 2004).

Experiment [1] has as its target TNF-α converting enzyme (TACE) (Homo sapiens, UniProt P78536). In words: TACE inhibition (fluorescent peptidyl substrate). It is filed as biochemical. As to the method:
Using 96-well black microtiter plates, each well receives a solution composed of 10 μL TACE (final concentration 1 μg/mL), 70 μL Tris buffer, pH 7.4 containing 10% glycerol (final concentration 10 mM), and 10 μL of test compound solution in DMSO (final concentration 1 μM, DMSO concentration <1%) and incubated for 10 minutes at room temperature. The reaction is initiated by addition of a fluorescent peptidyl substrate (final concentration 100 μM) to each well and then shaking on a shaker for 5 sec.
The reaction is read (excitation 340 nm, emission 420 nm) for 10 min. and the increase in fluorescence over time is plotted as a linear line. The slope of the line is calculated and represents the reaction rate.
The mean (x±sem) of the control rate is calculated and compared for statistical significance (p<0.05) with drug-treated rates using Dunnett's multiple comparison test.

In experiment [2] the test system is THP-1 cells. The experiment is described as follows: THP-1 soluble protein assay. As to conditions: LPS-stimulated THP-1 cells. In kind it is cell-based, human. The source says:
In addition, non-stimulated THP-1 cells shed both the p75/80 and the p55/60 receptors over time. The release of membrane bound TNF-α and possibly TNF-R p75/80 and TNF-R p55/60, but not IL-8, is mediated by an enzyme called TNF-a converting enzyme or TACE.
THP-1 cells (from ATCC) are a human monocytic cell line which were obtained from the peripheral blood of a person with acute monocytic leukemia. They can be grown in culture and differentiated into macrophage like cells by stimulation with mitogens.
Each vial of cells are cultured for about two weeks prior to being used for an assay and then are used for only 4 to 6 weeks to screen compounds.
Cell exposure to DMSO was limited to 0.1% final concentration. […] Compounds can be evaluated for their effect on basal (non-stimulated) shedding of the receptors by replacing the LPS with […] of THP-1 media. Plates are placed into an incubator set at 5% CO2 and at 37° C. […]
In addition, at the 24 hours timepoint, and the cells for each treatment group are collected by resuspension in 500 μl/well of THP-1 media and transferred into a FACS tube. […] The samples are run on a Becton Dickinson FaxCaliber FLOW cytometry machine and the amount of dye taken up by each cell is measured in the high red wavelength (FL3). […] The percent of live cells is calculated by the number of cells not stained with PI, divided by the total number of cells in the sample. […]

The target in experiment [3] is MMP-13 (Homo sapiens, UniProt P45452). In words: MMP-13 inhibition (thiopeptide or fluorescent peptide substrate). It is filed as biochemical. As to the method:
(§1) The enzyme activity is measured by the rate of the color increase. The thiopeptide substrate is made up fresh as a 20 mM stock in 100% DMSO and the DTNB is dissolved in 100% DMSO as a 100 mM stock and stored in the dark at room temperature. Both the substrate and DTNB are diluted together to 1 mM with substrate buffer (50 mM HEPES pH 7.5, 5 mM CaCl2) before use. The stock of enzyme is diluted with buffer (50 mM HEPES, pH 7.5, 5 mM CaCl2, 0.02% Brij) to the desired final concentration.
(§2) Alternatively, a fluorescent peptide substrate is used. In this test procedure, the peptide substrate contains a fluorescent group and a quenching group. Upon cleavage of the substrate by an MMP, the fluorescence that is generated is quantitated on the fluorescence plate reader. The assay is run in HCBC assay buffer (50 mM HEPES, pH 7.0, 5 mM Ca^+2, 0.02% Brij, 0.5% Cysteine), with human recombinant MMP-1, MMP-9, or MMP-13. The substrate is dissolved in methanol and stored frozen in 1 mM aliquots. For the assay, substrate and enzymes are diluted in HCBC buffer to the desired concentrations. […]
(§3) For either the thiopeptide or fluorescent peptide test procedures, the slope of the line is calculated and represents the reaction rate. […] The mean (x±sem) of the control rate is calculated and compared for statistical significance (p<0.05) with drug-treated rates using Dunnett's multiple comparison test.

In experiment [4] the target is T1, MMP-1 (Homo sapiens, UniProt P03956).
T1 sequence (P03956 100-469): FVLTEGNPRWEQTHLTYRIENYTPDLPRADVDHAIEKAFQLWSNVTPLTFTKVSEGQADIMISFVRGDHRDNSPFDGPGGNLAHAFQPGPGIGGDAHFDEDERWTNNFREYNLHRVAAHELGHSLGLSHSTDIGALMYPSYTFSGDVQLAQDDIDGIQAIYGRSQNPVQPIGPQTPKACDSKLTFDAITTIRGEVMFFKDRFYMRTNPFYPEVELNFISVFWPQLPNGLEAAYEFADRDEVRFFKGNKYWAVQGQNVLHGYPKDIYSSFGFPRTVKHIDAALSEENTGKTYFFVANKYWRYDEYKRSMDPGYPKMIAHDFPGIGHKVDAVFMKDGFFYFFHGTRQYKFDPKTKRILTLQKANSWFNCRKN
In words: MMP-1 inhibition (thiopeptide or fluorescent peptide substrate). In kind it is biochemical. On the procedure:
as §1, §2, §3

The target of experiment [5] is MMP-9 (Homo sapiens, UniProt P14780). In words: MMP-9 inhibition (thiopeptide or fluorescent peptide substrate). It is filed as biochemical. On the procedure: as §1, §2, §3
Sequence of MMP-9 (P14780 94-707): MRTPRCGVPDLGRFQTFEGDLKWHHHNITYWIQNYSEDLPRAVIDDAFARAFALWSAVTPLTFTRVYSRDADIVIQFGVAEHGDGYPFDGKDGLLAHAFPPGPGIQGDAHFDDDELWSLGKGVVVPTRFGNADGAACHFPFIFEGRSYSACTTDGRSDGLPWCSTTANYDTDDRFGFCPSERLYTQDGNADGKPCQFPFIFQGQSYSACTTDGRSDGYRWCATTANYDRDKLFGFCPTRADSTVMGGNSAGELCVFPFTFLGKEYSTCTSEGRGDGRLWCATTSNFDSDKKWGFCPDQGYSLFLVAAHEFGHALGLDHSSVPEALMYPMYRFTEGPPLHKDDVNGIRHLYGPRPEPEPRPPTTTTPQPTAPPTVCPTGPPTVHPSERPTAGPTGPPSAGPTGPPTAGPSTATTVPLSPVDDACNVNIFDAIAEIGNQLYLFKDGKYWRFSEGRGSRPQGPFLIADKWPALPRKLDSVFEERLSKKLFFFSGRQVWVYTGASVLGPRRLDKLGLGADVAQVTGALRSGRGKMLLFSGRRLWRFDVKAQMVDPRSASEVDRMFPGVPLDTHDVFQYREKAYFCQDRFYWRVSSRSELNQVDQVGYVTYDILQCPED

Sequence of TNF-α converting enzyme (TACE) (P78536 215-824, species assumed): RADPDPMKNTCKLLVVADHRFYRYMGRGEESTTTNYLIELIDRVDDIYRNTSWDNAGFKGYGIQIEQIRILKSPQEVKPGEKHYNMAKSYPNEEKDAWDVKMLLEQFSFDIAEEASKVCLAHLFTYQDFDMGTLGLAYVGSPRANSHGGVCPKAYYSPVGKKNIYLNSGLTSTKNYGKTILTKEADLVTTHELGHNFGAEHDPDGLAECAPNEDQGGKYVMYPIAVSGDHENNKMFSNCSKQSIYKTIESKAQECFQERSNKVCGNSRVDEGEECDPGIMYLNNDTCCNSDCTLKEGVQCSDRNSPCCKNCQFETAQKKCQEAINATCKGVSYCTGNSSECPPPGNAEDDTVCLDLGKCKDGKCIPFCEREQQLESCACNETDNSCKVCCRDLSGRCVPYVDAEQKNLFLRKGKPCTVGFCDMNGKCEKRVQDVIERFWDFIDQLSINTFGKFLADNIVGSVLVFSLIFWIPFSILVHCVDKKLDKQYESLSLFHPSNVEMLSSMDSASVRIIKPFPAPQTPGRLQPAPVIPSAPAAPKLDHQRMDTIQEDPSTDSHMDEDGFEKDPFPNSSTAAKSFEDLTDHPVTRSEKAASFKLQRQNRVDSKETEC

What is called IC50 is the concentration needed to halve the response being measured. A high value points to lower potency. Take “5-Bromo-2-[(4-butoxy-benzenesulfonyl)-methyl-amino]-N-hydroxy-3-methyl-benzamide [Example 39]”: the IC50 was 67 nM in experiment [1], 68 nM in experiment [3], 2490 nM in experiment [4] and 21 nM in experiment [5]. Moreover, the “THP % Inhib. @ 3 μM” value in experiment [2] was found to be 0%.
